Results as given in patent US10525115B2 (Immatics Biotechnologies GmbH, priority 2014, dated 2020).

Experiments:
[1] = system: AML patient PBMC; assay: 12-day recall IFN-γ ELISPOT assay, HLA class II LiTAPs, AML patient PBMC; assay type: cell-based, human; settings: HLA class II peptide
Description: (§1) PBMC from AML patients and healthy volunteers were cultured in RPMI1640 medium (Gibco) supplemented with 10% pooled human serum (PHS, produced in-house), […] β-mercaptoethanol (Roth, Karlsruhe, Germany) and 1% penicillin/streptomycin (GE). For CD8^+ T cell stimulation, PBMC were thawed and pulsed with 1 μg/ml per peptide. Peptide-pulsed PBMC (5-6×10^6 cells/ml) were cultured at 37° C. and 5% CO2 for 12 days. On day 0 and day 1, 5 ng/ml IL-4 (R&D Systems, Minneapolis, Minn., USA) and 5 ng/ml IL-7 (Promokine, Heidelberg, Germany) were added to the culture medium. On days 3, 5, 7 and 9, 2 ng/ml IL-2 (R&D Systems) were added to the culture medium. Peptide-stimulated PBMC were functionally characterized by ELISPOT assays on day 12 and by intracellular cytokine staining on day 13 respectively. For CD4^+ T-cell stimulation, culture was performed as described for CD8^+ T cells with 2 modifications: pulsing was carried out with 10 μg/ml of HLA class II peptide and no IL-4 and IL-7 was added.
(§2) IFN-γ ELISPOT assays were carried out as described previously (Widenmeyer M, Griesemann H, Stevanovic S, Feyerabend S, Klein R, Attig S, et al. Promiscuous survivin peptide induces robust CD4+ T-cell responses in the majority of vaccinated cancer patients. Int J Cancer. 2012 Jul. 1; 131(1):140-9). In brief, 96-well nitrocellulose plates (Millipore) were coated with 1 mg/ml IFN-γ mAb (Mabtech, Cincinnati, Ohio, USA) and incubated over night at 4° C. Plates were blocked with 10% PHS for 2 h at 37° C. 5×10^5 cells/well of pre-stimulated PBMC were pulsed with 1 μg/ml (HLA class I) or 2.5 μg/ml (HLA class II) peptide and incubated for 24-26 h. Readout was performed according to manufacturer's instructions. Spots were counted using an ImmunoSpot S5 analyzer (CTL, Shaker Heights, Ohio, USA). T cell responses were considered to be positive when >15 spots/well were counted and the mean spot count per well was at least 3-fold higher than the mean number of spots in the negative control wells (according to the cancer immunoguiding program (CIP) guidelines).

[2] = system: healthy donor PBMC; assay: Cross-checking IFN-γ ELISPOT assay, HLA class II LiTAPs, healthy donor PBMC; assay type: cell-based, human; settings: HLA class II peptide
Description: as §1, §2

[3] = system: HLA-DR1; assay: REVEAL MHC-peptide binding assay; design: species or system human; settings: for binding / complex formation: HLA-DR1; for stability of the formed HLA-peptide complex: HLA-DR1, after 24 h at 37° C.
Description: (§3) The promiscuous binding of GALNT7-001 and ERGIC1-001 to various HLA-DR haplotypes and the stability of the formed complexes was assessed in an in vitro binding assay.
(§4) The seven investigated HLA-DR haplotypes are selected according to their frequencies in HLA-A*02- and HLA-A*24-positive North American populations. Data are derived from the analysis of 1.35 million HLA-typed volunteers registered in the National Marrow Donor Program (Mori M, Beatty P G, Graves M, Boucher K M, Milford E L (1997). HLA gene and haplotype frequencies in the North American population: the National Marrow Donor Program Donor Registry. Transplantation 64, 1017-1027). The analyzed population was subdivided in the following ethnic groups: Caucasian Americans (N=997,193), African Americans (N=110,057), Asian Americans (N=81,139), Latin Americans (N=100,128), and Native Americans (N=19,203).
(§5) The MHC-peptide binding assay as used determined the ability of each candidate peptide to bind to the selected HLA class II haplotype and stabilize the HLA-peptide complex. For this, the candidate peptides are assembled in vitro with a particular HLA class II protein.
(§6) The binding capacity of a candidate peptide to a particular HLA molecule is compared to a reference peptide with known very strong binding properties (positive control) for each HLA haplotype. Experimental standard errors derive from binding experiments of triplicated positive controls.
(§7) Besides the affinity of a peptide to a particular HLA molecule, the enduring stability of the formed HLA-peptide complex is crucial for the occurrence of an immune response. For this reason the presence of the formed HLA-peptide complex is measured after its incubation for 24 h at 37° C. The stability of the formed MHC-peptide complex is calculated as a ratio of the binding scores at 24 h and the binding scores which are received right after the refolding (accordingly at time 0) in percent.

[4] = system: HLA-DR3; assay: REVEAL MHC-peptide binding assay; design: species or system human
Description: as §3, §4, §5, §6, §7

[5] = system: HLA-DR4; assay: REVEAL MHC-peptide binding assay; design: species or system human; settings: for binding / complex formation: HLA-DR4; for stability of the formed HLA-peptide complex: HLA-DR4, after 24 h at 37° C.; for binding score: HLA-DR4, compared to the positive control, over 15% = strong binding
Description: as §3, §4, §5, §6, §7

[6] = system: HLA-DR5; assay: REVEAL MHC-peptide binding assay; design: species or system human; settings: for binding / complex formation: HLA-DR5; for stability of the formed HLA-peptide complex: HLA-DR5, after 24 h at 37° C.
Description: as §3, §4, §5, §6, §7

[7] = system: HLA-DR6; assay: REVEAL MHC-peptide binding assay; design: species or system human
Description: as §3, §4, §5, §6, §7

[8] = system: HLA-DR7; assay: REVEAL MHC-peptide binding assay; design: species or system human; settings: for binding / complex formation: HLA-DR7; for stability of the formed HLA-peptide complex: HLA-DR7, after 24 h at 37° C.
Description: as §3, §4, §5, §6, §7

[9] = molecular target: HLA-DR2 (Homo sapiens, UniProt P01903+P01911); assay: REVEAL MHC-peptide binding assay; settings: for binding / complex formation: HLA-DR2
Description: as §3, §4, §5, §6, §7

[10] = system: HLA-DR haplotypes; assay: REVEAL MHC-peptide binding assay, panel of seven HLA-DR haplotypes; design: species or system human; settings: for number of formed HLA-peptide complexes stable for at least 24 h: of 5 formed complexes, 37° C.; for number of HLA-DR haplotypes with considerable binding capacity / number of HLA-DR haplotypes with which a complex was formed: of 7 investigated HLA-DR haplotypes
Description: as §3, §4, §5, §6, §7

[11] = system: MHC class I; assay: MHC class I binding assay (UV-exchange, β2m ELISA); design: species or system human; settings: yield of UV-exchange reaction
Description: Candidate peptides for T cell based therapies according to the present invention were further tested for their MHC binding capacity (affinity). The individual peptide-MHC complexes were produced by exchange with the peptide of interest as analyzed. Only peptide candidates that can effectively bind and stabilize the peptide-receptive MHC molecules prevent dissociation of the MHC complexes. To determine the yield of the exchange reaction, an ELISA was performed based on the detection of the light chain (β2m) of stabilized MHC complexes. The assay was performed as generally described in Rodenko et al. (Rodenko, B. et al., Nat Protoc. 1 (2006): 1120-1132).
96 well MAXISorp plates (NUNC) were coated over night with 2 ug/ml streptavidin in PBS at room temperature, washed 4× and blocked for 1 h at 37° C. in 2% BSA containing blocking buffer. Refolded HLA-A*0201/MLA-001 monomers served as standards, covering the range of 15-500 ng/ml. Peptide-MHC monomers of the UV-exchange reaction were diluted 100 fold in blocking buffer. Samples were incubated for 1 h at 37° C., washed four times, incubated with 2 μg/ml HRP conjugated anti-β2m for 1 h at 37° C., washed again and detected with TMB solution that is stopped with […]. Absorption was measured at 450 nm. Candidate peptides that show a high exchange yield (preferably higher than 50%, most preferred higher than 75%) are generally preferred for a generation and production of antibodies or fragments thereof, and/or T cell receptors or fragments thereof, as they show sufficient avidity to the MHC molecules and prevent dissociation of the MHC complexes.
MHC class I binding scores for the peptides as tested were; <20%=+; 20%-49%=++; 50%−75%=+++; >=75%=++++

Chain of HLA-DR2 (P01903 26-216 limits assumed): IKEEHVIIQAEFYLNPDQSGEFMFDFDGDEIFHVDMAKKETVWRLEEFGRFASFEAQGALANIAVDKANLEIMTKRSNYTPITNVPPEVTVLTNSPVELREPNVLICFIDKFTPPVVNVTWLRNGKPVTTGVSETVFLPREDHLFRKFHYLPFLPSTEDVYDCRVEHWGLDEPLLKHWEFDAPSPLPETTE
Chain of HLA-DR2 (P01911 30-227 limits assumed): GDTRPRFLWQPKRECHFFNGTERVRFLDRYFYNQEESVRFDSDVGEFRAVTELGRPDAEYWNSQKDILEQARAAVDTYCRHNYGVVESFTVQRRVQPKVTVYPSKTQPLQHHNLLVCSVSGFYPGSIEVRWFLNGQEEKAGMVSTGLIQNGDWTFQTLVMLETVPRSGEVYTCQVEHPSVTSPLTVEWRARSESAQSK

SPNIVIALSGNKADLA (listed as Homo sapiens) [SEQ ID NO 558]
T cell responses (IFN-γ ELISPOT), share of AML patients [1]: 20.0% | T cell responses (IFN-γ ELISPOT) in AML patients (positive/tested) ([1]; listed as P[[I]]II2): significant increase in IFN-γ production | T cell responses (IFN-γ ELISPOT) in AML patients (positive/tested) ([1]; listed as P^II2): 3/15 | IFN-γ secretion in ELISPOT, healthy donor PBMC (positive/tested) [2]: 0/8

HRSFVDLSGHNLANPHP (listed as Homo sapiens) [SEQ ID NO 478]
T cell responses (IFN-γ ELISPOT), share of AML patients [1]: 26.7% | T cell responses (IFN-γ ELISPOT) in AML patients (positive/tested) ([1]; listed as PII1): significant increase in IFN-γ production | T cell responses (IFN-γ ELISPOT) in AML patients (positive/tested) ([1]; listed as P^II1): 4/15 | IFN-γ secretion in ELISPOT, healthy donor PBMC (positive/tested) [2]: 0/8

GNQLFRINEANQLMQ (listed as Homo sapiens) [SEQ ID NO 597]
binding / complex formation [3]: form a complex | stability of the formed HLA-peptide complex [3]: stable | binding score ([3]; HLA-DR1, compared to the positive control, over 15% = strong binding): over 15% | binding / complex formation [4]: did not bind | binding / complex formation [5]: form a complex | stability of the formed HLA-peptide complex [5]: stable | binding score [5]: over 15% | binding / complex formation [6]: form a complex | stability of the formed HLA-peptide complex [6]: stable | binding / complex formation [7]: did not bind | binding / complex formation [8]: form a complex | stability of the formed HLA-peptide complex [8]: stable | binding score ([8]; HLA-DR7, compared to the positive control, over 15% = strong binding): over 15% | binding / complex formation [9]: form a complex | binding score ([9]; HLA-DR2, compared to the positive control, over 15% = strong binding): over 15% | number of formed HLA-peptide complexes stable for at least 24 h [10]: 4 | number of HLA-DR haplotypes with considerable binding capacity [10]: at least 4 | number of HLA-DR haplotypes with which a complex was formed [10]: 5

FEGQFSINKVPGNFHVS (listed as Homo sapiens) [SEQ ID NO 604]
binding / complex formation [3]: form a complex | stability of the formed HLA-peptide complex [3]: stable | binding / complex formation [4]: did not bind | binding / complex formation [5]: form a complex | stability of the formed HLA-peptide complex [5]: stable | binding score [5]: ≥ 15% | binding / complex formation [6]: form a complex | stability of the formed HLA-peptide complex [6]: stable | binding score ([6]; HLA-DR5, compared to the positive control, over 15% = strong binding): ≥ 15% | binding / complex formation [7]: did not bind | binding / complex formation [8]: form a complex | stability of the formed HLA-peptide complex [8]: stable | binding / complex formation [9]: form a complex | number of formed HLA-peptide complexes stable for at least 24 h [10]: 4 | number of HLA-DR haplotypes with considerable binding capacity [10]: at least 2 | number of HLA-DR haplotypes with which a complex was formed [10]: 5

54 (AVIEAEKIAQV; listed as Homo sapiens) [compound 54]
Peptide exchange (MHC class I binding score) [11]: ++++ (>=75%=++++)

TEGQFVDLTGNRLTYT (listed as Homo sapiens) [SEQ ID NO 544]
T cell responses (IFN-γ ELISPOT), share of AML patients [1]: 13.3% | T cell responses (IFN-γ ELISPOT) in AML patients (positive/tested) ([1]; listed as P[[I]]II3): significant increase in IFN-γ production | T cell responses (IFN-γ ELISPOT) in AML patients (positive/tested) ([1]; listed as P^II3): 2/15 | IFN-γ secretion in ELISPOT, healthy donor PBMC (positive/tested) [2]: 0/8

36 (SLLYKVPYV; listed as Homo sapiens) [compound 36]
Peptide exchange (MHC class I binding score) [11]: ++++ (>=75%=++++)

266 (KLQEQLAQL; listed as Homo sapiens) [compound 266]
Peptide exchange (MHC class I binding score) [11]: ++++ (>=75%=++++)

251 (VLGGKAFLEHL; listed as Homo sapiens) [compound 251]
Peptide exchange (MHC class I binding score) [11]: ++++ (>=75%=++++)
